The text below walks through data of ChEMBL document CHEMBL1201862, “PubChem BioAssay data set” (2004).

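Test compounds were applied to cells in 96-well plates for 48 hours at 5 doses. Here, GI50 denotes the concentration required for 50% inhibition of growth.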 Activity calls are given as the source filed them. Cut-off read from the data, not from the text of the source: active = GI50 up to about 1.1 µM and inactive = higher.

Some test systems named below: UACC-62; BT-549; SNB-75; OVCAR-5; A549; OVCAR-4; NCI-H226; UACC-257; HCT-15; SN12C; SK-MEL-28; SNB-19; SF-268; SW-620; NCI/ADR-RES; Malme-3M; U-251; MDA-N; MDA-MB-435; RXF 393.
Holding throughout (experiment): DTP human tumour cell line panel, 48 h

For the compound `COC(=O)C[C@@H]1C(C)(C)[C@@H]2O[C@@]34C[C@@H]2C(=O)[C@]1(C)[C@H]3CC[C@@]1(C)[C@H](c2ccoc2)OC(=O)C[C@]14O`, the GI50 in the experiment on UACC-62, in the experiment on BT-549, with SNB-75, in the experiment on OVCAR-5, with A549 and in the experiment on OVCAR-4 was > 100 µM (inactive) each time. For the same compound, the GI50 in the experiment on NCI-H226 is > 100 µM (inactive); with UACC-257 it was > 100 µM (inactive); in the experiment on HCT-15 it was greater than 100 µM; with SN12C it was > 100 µM (inactive); with SK-MEL-28, > 100 µM (inactive); in the experiment with SNB-19 it was 71.6 µM (inactive). Also, the GI50 with SF-268, in the experiment with SW-620, in the experiment on NCI/ADR-RES, in the experiment with Malme-3M, in the experiment with U-251 and in the experiment on MDA-N was > 100 µM (inactive) each time. Also, the GI50 in the experiment on MDA-MB-435 is > 100 µM (inactive).

As for `CCO/C(Cc1ccc(Cl)cc1)=N/NC(N)=S`, the GI50 in the experiment on UACC-62, in the experiment on BT-549, with SNB-75, in the experiment on OVCAR-5, in the experiment on A549 and in the experiment with OVCAR-4 was > 100 µM (inactive) each time. Moreover, the GI50 was > 100 µM (inactive) in the experiment with NCI-H226; > 100 µM (inactive) in the experiment on UACC-257; greater than 100 µM in the experiment with HCT-15; > 100 µM (inactive) in the experiment with SN12C; > 100 µM (inactive) with SK-MEL-28; > 100 µM (inactive) in the experiment with SNB-19. The GI50 in the experiment with SW-620, in the experiment with NCI/ADR-RES, with Malme-3M, in the experiment on U-251, with MDA-N and in the experiment with MDA-MB-435 was > 100 µM (inactive) in each case.

Take `CC(=O)OC[C@@H](OC(C)=O)[C@H](OC(C)=O)[C@@H]1OC(C)(C)O[C@@H]1C1SCCCS1`: the GI50 with UACC-62, with BT-549, with SNB-75, in the experiment with OVCAR-5, in the experiment with A549 and in the experiment with OVCAR-4 was > 100 µM (inactive) throughout. Besides, the GI50 with UACC-257, in the experiment on SK-MEL-28, in the experiment with SNB-19, with SF-268, with SW-620 and with Malme-3M was > 100 µM (inactive) each time. Moreover, the GI50 in the experiment on U-251, with RXF 393, in the experiment on MDA-N and in the experiment on MDA-MB-435 was > 100 µM (inactive) each time.

Regarding `CC(C)(C)OC(=O)Nc1cc(-c2ccccc2)co1`, the GI50 in the experiment with UACC-62 was > 100 µM (inactive); in the experiment with BT-549, 79.8 µM (inactive); with OVCAR-5, > 100 µM (inactive); in the experiment with A549 it was 78.2 µM (inactive); with OVCAR-4 it was > 100 µM (inactive); in the experiment on NCI-H226, > 100 µM (inactive). The GI50 with UACC-257 was > 100 µM (inactive); with HCT-15, greater than 100 µM; with SN12C, 95.9 µM (inactive); in the experiment with SK-MEL-28, > 100 µM (inactive); in the experiment with SNB-19, > 100 µM (inactive); with SF-268 it was 22.7 µM (inactive). Also, the GI50 in the experiment with SW-620 was > 100 µM (inactive); in the experiment on NCI/ADR-RES it was > 100 µM (inactive); with U-251, 54.6 µM (inactive); in the experiment on MDA-N it was 86.3 µM (inactive); with MDA-MB-435, 94 µM (inactive).

As to `O=C(NCCn1ccnn1)Nc1ccccc1`, the GI50 in the experiment on BT-549 was > 100 µM (inactive); in the experiment with SNB-75, > 100 µM (inactive); in the experiment with OVCAR-5, > 100 µM (inactive); in the experiment with A549, > 100 µM (inactive); with UACC-257 it was > 100 µM (inactive); in the experiment with HCT-15, greater than 100 µM. Also, the GI50 in the experiment with SN12C, in the experiment with SK-MEL-28, with SNB-19, in the experiment with SF-268, in the experiment on SW-620 and in the experiment with NCI/ADR-RES was > 100 µM (inactive) in each case. Further, the GI50 with Malme-3M, with U-251 and in the experiment on MDA-MB-435 was > 100 µM (inactive) each time.

In the case of `Cc1nn(C(=O)Cc2ccccc2)c2c1C(c1ccc(O)cc1)SC(=N)N2` (stereo unspecified), the GI50 was > 100 µM (inactive) with UACC-62; > 100 µM (inactive) in the experiment with BT-549; 44.6 µM (inactive) in the experiment on SNB-75; > 100 µM (inactive) with A549; > 100 µM (inactive) with NCI-H226; > 100 µM (inactive) in the experiment with UACC-257. Besides, the GI50 in the experiment on HCT-15 is greater than 100 µM; with SN12C, > 100 µM (inactive); with SK-MEL-28, > 100 µM (inactive); in the experiment on SNB-19, > 100 µM (inactive); in the experiment with SF-268, > 100 µM (inactive); in the experiment on SW-620 it was > 100 µM (inactive). Further, the GI50 with Malme-3M, in the experiment with MDA-N and in the experiment on MDA-MB-435 was > 100 µM (inactive) throughout.

As to `O=C(c1cc(Cl)ccc1Cl)N1CCN(C(=O)c2cc(Cl)ccc2Cl)CC1`, the GI50 in the experiment on BT-549 was > 100 µM (inactive); in the experiment on SNB-75, 33.1 µM (inactive); in the experiment on OVCAR-5 it was > 100 µM (inactive); in the experiment on A549, > 100 µM (inactive); with OVCAR-4, > 100 µM (inactive); with NCI-H226 it was > 100 µM (inactive). Moreover, the GI50 was > 100 µM (inactive) with UACC-257; greater than 100 µM in the experiment with HCT-15; > 100 µM (inactive) in the experiment with SN12C; > 100 µM (inactive) in the experiment on SK-MEL-28; > 100 µM (inactive) with SNB-19; > 100 µM (inactive) in the experiment with SF-268. In addition, the GI50 with SW-620 is > 100 µM (inactive); with Malme-3M, > 100 µM (inactive); with U-251, > 100 µM (inactive); with RXF 393, 67.1 µM (inactive); in the experiment with MDA-N, > 100 µM (inactive).

Consider `CCOc1ccc(-n2nnc3c(N)nc(N)nc32)cc1`, for which the GI50 in the experiment with UACC-62, in the experiment on BT-549, in the experiment on SNB-75, with OVCAR-5, with A549 and in the experiment with OVCAR-4 was > 100 µM (inactive) in each case. Moreover, the GI50 with NCI-H226 was > 100 µM (inactive); in the experiment with UACC-257 it was > 100 µM (inactive); in the experiment with HCT-15, greater than 100 µM; in the experiment on SN12C, > 100 µM (inactive); in the experiment on SK-MEL-28, > 100 µM (inactive); in the experiment with SNB-19 it was 29.1 µM (inactive). Besides, the GI50 in the experiment with SW-620, in the experiment with NCI/ADR-RES, with Malme-3M, in the experiment on U-251, in the experiment with MDA-N and with MDA-MB-435 was > 100 µM (inactive) throughout.

Take `CCOC(=O)c1c(SCC#N)n(-c2ccccc2)c(=S)n(-c2ccccc2)c1=O`: the GI50 with UACC-62 was 23.3 µM (inactive); in the experiment on BT-549, 36.1 µM (inactive); in the experiment with SNB-75, 25.8 µM (inactive); in the experiment with OVCAR-5, > 100 µM (inactive); in the experiment on A549, 39.4 µM (inactive); in the experiment with OVCAR-4, 40.7 µM (inactive). Moreover, the GI50 was 38.4 µM (inactive) with NCI-H226; 61.2 µM (inactive) with UACC-257; 25.8 µM in the experiment with HCT-15; 32.4 µM (inactive) in the experiment with SN12C; 57.9 µM (inactive) in the experiment with SK-MEL-28; 37.8 µM (inactive) in the experiment with SNB-19. In addition, the GI50 with SF-268 was 55.8 µM (inactive); with SW-620, 29.9 µM (inactive); in the experiment on NCI/ADR-RES, 35.3 µM (inactive); in the experiment on Malme-3M, 39.2 µM (inactive); in the experiment with U-251, 33 µM (inactive); in the experiment on MDA-N it was 82.8 µM (inactive). In addition, the GI50 in the experiment with MDA-MB-435 was 38.7 µM (inactive).

On to `CCN(CC)C(=O)Cn1c2c(c3ccccc31)CCCC2`, for which the GI50 was 99.8 µM (inactive) in the experiment on UACC-62; > 100 µM (inactive) in the experiment on BT-549; > 100 µM (inactive) with OVCAR-5; 61.8 µM (inactive) with A549; > 10 µM (inactive) in the experiment with OVCAR-4; > 100 µM (inactive) in the experiment with UACC-257. Also, the GI50 is 74.6 µM in the experiment with HCT-15; > 100 µM (inactive) in the experiment with SN12C; > 100 µM (inactive) in the experiment with SK-MEL-28; > 100 µM (inactive) in the experiment on SNB-19; > 100 µM (inactive) with SF-268; > 100 µM (inactive) in the experiment with SW-620. For the same compound, the GI50 in the experiment with NCI/ADR-RES is 66.4 µM (inactive); with Malme-3M it was > 100 µM (inactive); with MDA-N, 77.8 µM (inactive); with MDA-MB-435, 91.4 µM (inactive).

`Cc1ccccc1[P+](C)(c1ccccc1C)c1ccccc1C`: the GI50 in the experiment with UACC-62 is 5.79 µM (inactive); in the experiment on BT-549, 7.48 µM (inactive); in the experiment on SNB-75, 12.6 µM (inactive); in the experiment on OVCAR-5, 13.6 µM (inactive); in the experiment with A549, 13.1 µM (inactive); with OVCAR-4, 2.96 µM (inactive). For the same compound, the GI50 was 14.6 µM (inactive) in the experiment on NCI-H226; 2.58 µM (inactive) in the experiment with UACC-257; 19.9 µM in the experiment with HCT-15; 14.7 µM (inactive) in the experiment on SN12C; 11.6 µM (inactive) with SK-MEL-28; 8.69 µM (inactive) in the experiment on SNB-19. Moreover, the GI50 is 34.8 µM (inactive) in the experiment on SF-268; 13.6 µM (inactive) with SW-620; 25.5 µM (inactive) in the experiment with NCI/ADR-RES; 8.18 µM (inactive) with Malme-3M; 6.3 µM (inactive) in the experiment on U-251; 36.9 µM (inactive) in the experiment with RXF 393. For the same compound, the GI50 in the experiment on MDA-MB-435 is 4.54 µM (inactive).

As to `O=c1oc(-c2ccccc2)c(-c2ccccc2)n1-c1ccc(Br)cc1`, the GI50 with UACC-62 was 73.8 µM (inactive); in the experiment on BT-549, 25.5 µM (inactive); with SNB-75, 12 µM (inactive); with OVCAR-5 it was > 100 µM (inactive); in the experiment on A549, 54.5 µM (inactive); in the experiment with OVCAR-4, 27 µM (inactive). The GI50 is > 100 µM (inactive) with NCI-H226; 86.9 µM (inactive) in the experiment with UACC-257; greater than 100 µM in the experiment with HCT-15; 71.3 µM (inactive) in the experiment on SN12C; > 100 µM (inactive) in the experiment with SK-MEL-28; 31.8 µM (inactive) in the experiment with SNB-19. Besides, the GI50 is 55 µM (inactive) in the experiment with SF-268; > 100 µM (inactive) in the experiment on SW-620; 24.2 µM (inactive) in the experiment on U-251; 36.3 µM (inactive) in the experiment with RXF 393; > 100 µM (inactive) with MDA-MB-435.

As usually defined, the GI50 is the concentration at which growth is held to half of that of the control.
